ChEMBL document CHEMBL5108027, “An unanticipated discovery of novel naphthalimidopropanediols as potential broad-spectrum antibacterial members” (Eur J Med Chem, 2022)
In brackets after ≈: the same amount, converted by molar mass.

What was measured:
Type in all cases: functional
[1] = tested on: Staphylococcus aureus; assay: Antibacterial activity against methicillin-resistant Staphylococcus aureus N315 measured by Muller-Hinton broth based microdilution assay
[2] = tested on: Enterococcus faecalis; assay: Antibacterial activity against Enterococcus faecalis measured by Muller-Hinton broth based microdilution assay
[3] = tested on: Staphylococcus aureus; assay: Antibacterial activity against Staphylococcus aureus measured by Muller-Hinton broth based microdilution assay
[4] = tested on: Staphylococcus aureus; assay: Antibacterial activity against Staphylococcus aureus ATCC 25923 measured by Muller-Hinton broth based microdilution assay
[5] = tested on: Staphylococcus aureus; assay: Antibacterial activity against Staphylococcus aureus ATCC 29213 measured by Muller-Hinton broth based microdilution assay
[6] = tested on: Klebsiella pneumoniae; assay: Antibacterial activity against Klebsiella pneumoniae measured by Muller-Hinton broth based microdilution assay
[7] = tested on: Escherichia coli; assay: Antibacterial activity against Escherichia coli measured by Muller-Hinton broth based microdilution assay
[8] = tested on: Pseudomonas aeruginosa; assay: Antibacterial activity against Pseudomonas aeruginosa measured by Muller-Hinton broth based microdilution assay
[9] = tested on: Acinetobacter baumannii; assay: Antibacterial activity against Acinetobacter baumannii measured by Muller-Hinton broth based microdilution assay
[10] = tested on: Pseudomonas aeruginosa; assay: Antibacterial activity against Pseudomonas aeruginosa ATCC 27853 measured by Muller-Hinton broth based microdilution assay
[11] = tested on: Escherichia coli; assay: Antibacterial activity against Escherichia coli ATCC 25922 measured by Muller-Hinton broth based microdilution assay

SMILES	MIC [1]	MIC [2]	MIC [3]	MIC [4]	MIC [5]	MIC [6]	MIC [7]	MIC [8]	MIC [9]	MIC [10]	MIC [11]
O=C1c2cccc3c(N/N=C/c4ccc(F)cc4F)ccc(c23)C(=O)N1C(CO)CO	128 µg/mL (≈ 301 µM)	128 µg/mL (≈ 301 µM)	256 µg/mL (≈ 602 µM)	32 µg/mL (≈ 75.2 µM)	16 µg/mL (≈ 37.6 µM)	128 µg/mL (≈ 301 µM)	256 µg/mL (≈ 602 µM)	256 µg/mL (≈ 602 µM)	256 µg/mL (≈ 602 µM)	256 µg/mL (≈ 602 µM)	256 µg/mL (≈ 602 µM)
C=CCn1cc(/C=N/Nc2ccc3c4c(cccc24)C(=O)N(C(CO)CO)C3=O)c2ccccc21	64 µg/mL (≈ 137 µM)	64 µg/mL (≈ 137 µM)	64 µg/mL (≈ 137 µM)	16 µg/mL (≈ 34.2 µM)	32 µg/mL (≈ 68.3 µM)	4 µg/mL (≈ 8.54 µM)	32 µg/mL (≈ 68.3 µM)	128 µg/mL (≈ 273 µM)	64 µg/mL (≈ 137 µM)	64 µg/mL (≈ 137 µM)	16 µg/mL (≈ 34.2 µM)
O=C1c2cccc3c(N/N=C/c4c[nH]c5ccccc45)ccc(c23)C(=O)N1C(CO)CO	4 µg/mL (≈ 9.34 µM)	64 µg/mL (≈ 149 µM)	8 µg/mL (≈ 18.7 µM)	8 µg/mL (≈ 18.7 µM)	2 µg/mL (≈ 4.67 µM)	64 µg/mL (≈ 149 µM)	64 µg/mL (≈ 149 µM)	4 µg/mL (≈ 9.34 µM)	64 µg/mL (≈ 149 µM)	32 µg/mL (≈ 74.7 µM)	64 µg/mL (≈ 149 µM)
COc1cc(/C=N/Nc2ccc3c4c(cccc24)C(=O)N(C(CO)CO)C3=O)ccc1O	64 µg/mL (≈ 147 µM)	8 µg/mL (≈ 18.4 µM)	16 µg/mL (≈ 36.7 µM)	64 µg/mL (≈ 147 µM)	16 µg/mL (≈ 36.7 µM)	4 µg/mL (≈ 9.19 µM)	64 µg/mL (≈ 147 µM)	64 µg/mL (≈ 147 µM)	64 µg/mL (≈ 147 µM)	8 µg/mL (≈ 18.4 µM)	16 µg/mL (≈ 36.7 µM)
O=C1c2cccc3c(N/N=C/c4csc5ccccc45)ccc(c23)C(=O)N1C(CO)CO	64 µg/mL (≈ 144 µM)	64 µg/mL (≈ 144 µM)	64 µg/mL (≈ 144 µM)	64 µg/mL (≈ 144 µM)	128 µg/mL (≈ 287 µM)	32 µg/mL (≈ 71.8 µM)	32 µg/mL (≈ 71.8 µM)	64 µg/mL (≈ 144 µM)	64 µg/mL (≈ 144 µM)	64 µg/mL (≈ 144 µM)	64 µg/mL (≈ 144 µM)
O=C1c2cccc3c(N/N=C/c4ccccc4)ccc(c23)C(=O)N1C(CO)CO	64 µg/mL (≈ 164 µM)	64 µg/mL (≈ 164 µM)	64 µg/mL (≈ 164 µM)	2 µg/mL (≈ 5.14 µM)	32 µg/mL (≈ 82.2 µM)	16 µg/mL (≈ 41.1 µM)	128 µg/mL (≈ 329 µM)	1 µg/mL (≈ 2.57 µM)	64 µg/mL (≈ 164 µM)	32 µg/mL (≈ 82.2 µM)	64 µg/mL (≈ 164 µM)
